Data as given in publication PMC11740144 (ACS Omega, 2024).

Tests used:
[1] = tested on: SARS-CoV-2 delta virus (NTU92); experiment: Plaque reduction assay, entry treatment (compound preincubated with the virus); format: cell-based; settings: Severe acute respiratory syndrome coronavirus 2, Vero C1008, VeroE6 cells, triplicate, read-out: EC50 against delta SARS-CoV-2 infecting VeroE6 cells
[2] = Cytotoxicity by acid phosphatase assay; format: cell-based; settings: African green monkey; VeroE6 cells, 3 days incubation
Method: Cytotoxicity of the inhibitors was determined by using acid phosphatase assay. Briefly, VeroE6 cells were seeded onto a 96-well culture plate at a concentration of 2 × 10^4 cells per well. Next day, the medium was removed, and each well was washed once with PBS before adding DMEM containing 2% FBS and different concentrations of an inhibitor. Next, DMEM containing 2 μg/mL TPCK-trypsin was added. After 1 h of incubation at 37 °C, the medium was removed, and cells were washed by PBS. Then, DMEM containing 2% FBS and different concentrations of an antiviral was added. After 3 days of incubation at 37 °C, the medium was removed, and each well was washed once with PBS. Next, buffer containing 0.1 M sodium acetate (pH = 5.0), 0.1% Triton X-100, and 5 mM p-nitrophenyl phosphate was added. After the mixture was incubated at 37 °C for 2 h, 1 N NaOH was added to stop the reaction. The absorbance was then determined by an ELISA reader (VERSAmax, Molecular Devices, Sunnyvale, CA) at a wavelength of 405 nm. The percentage of cytotoxicity was calculated using the following formula: cytotoxicity % = [1 – (At/As) × 100]%, where At and As refer to the absorbance of a tested substance and solvent control, respectively. The 50% cytotoxicity concentration (CC50) was defined as the concentration reducing 50% of cell viability. […]

[3] = target: RBD:ACE2 interaction (Severe acute respiratory syndrome coronavirus 2, UniProt P0DTC2); experiment: RBD:ACE2 interaction inhibition, NanoBiT kit (Promega); design: species or system delta SARS-CoV-2 RBD / human ACE2; settings: RBD from delta SARS-CoV-2, triplicate; read-out: IC50 of RBD:ACE2 binding inhibition
[4] = target: Furin (Homo sapiens, UniProt P09958); experiment: Inhibition of human protease Furin (data not shown); format: biochemical
Furin, sequence (P09958 108-794): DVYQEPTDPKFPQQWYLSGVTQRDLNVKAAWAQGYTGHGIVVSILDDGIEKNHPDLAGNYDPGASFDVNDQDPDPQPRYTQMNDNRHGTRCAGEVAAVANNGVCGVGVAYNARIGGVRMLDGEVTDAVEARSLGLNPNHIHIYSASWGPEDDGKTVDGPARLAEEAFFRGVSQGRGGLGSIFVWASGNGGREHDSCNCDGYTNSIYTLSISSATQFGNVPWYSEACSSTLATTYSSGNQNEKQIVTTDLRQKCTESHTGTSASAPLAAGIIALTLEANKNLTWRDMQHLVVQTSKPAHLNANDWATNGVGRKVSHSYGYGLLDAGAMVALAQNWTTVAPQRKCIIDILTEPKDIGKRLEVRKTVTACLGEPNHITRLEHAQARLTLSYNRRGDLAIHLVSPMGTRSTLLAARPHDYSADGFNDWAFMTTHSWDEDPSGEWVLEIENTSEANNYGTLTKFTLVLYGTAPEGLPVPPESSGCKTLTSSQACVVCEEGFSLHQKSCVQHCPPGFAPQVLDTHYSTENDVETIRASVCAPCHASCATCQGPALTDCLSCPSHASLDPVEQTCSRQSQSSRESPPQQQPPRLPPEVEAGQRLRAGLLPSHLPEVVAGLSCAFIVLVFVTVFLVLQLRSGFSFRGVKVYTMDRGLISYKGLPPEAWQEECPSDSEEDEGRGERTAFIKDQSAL

[5] = target: TMPRSS2 (Homo sapiens, UniProt O15393); experiment: Inhibition of human protease TMPRSS2 (data not shown); format: biochemical
TMPRSS2, sequence (O15393 whole entry): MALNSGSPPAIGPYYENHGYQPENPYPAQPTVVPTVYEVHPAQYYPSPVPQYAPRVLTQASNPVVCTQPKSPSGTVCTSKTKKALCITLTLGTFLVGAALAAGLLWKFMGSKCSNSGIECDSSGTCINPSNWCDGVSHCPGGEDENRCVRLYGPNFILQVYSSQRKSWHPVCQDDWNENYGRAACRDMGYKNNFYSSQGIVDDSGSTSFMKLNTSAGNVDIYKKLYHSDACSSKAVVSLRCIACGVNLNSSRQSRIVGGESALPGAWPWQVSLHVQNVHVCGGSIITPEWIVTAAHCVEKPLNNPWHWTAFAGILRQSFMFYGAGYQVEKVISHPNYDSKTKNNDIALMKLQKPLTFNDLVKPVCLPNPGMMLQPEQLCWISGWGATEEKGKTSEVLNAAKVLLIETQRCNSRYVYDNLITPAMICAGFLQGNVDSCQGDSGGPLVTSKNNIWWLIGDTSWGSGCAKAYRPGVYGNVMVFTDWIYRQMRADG

[6] = target: Cathepsin L (Homo sapiens, UniProt P07711); experiment: Inhibition of human protease Cathepsin L (data not shown); format: biochemical
Cathepsin L, sequence (P07711 114-333): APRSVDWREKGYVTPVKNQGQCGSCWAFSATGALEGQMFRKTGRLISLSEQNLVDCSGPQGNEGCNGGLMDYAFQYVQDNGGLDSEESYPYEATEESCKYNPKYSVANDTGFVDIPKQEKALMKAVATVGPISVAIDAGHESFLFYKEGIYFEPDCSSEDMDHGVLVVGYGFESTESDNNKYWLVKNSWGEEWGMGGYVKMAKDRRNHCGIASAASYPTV

[7] = tested on: SARS-CoV-2; format: cell-based
[8] = tested on: SARS-CoV-2; settings: VeroE6 host cells; read-out: EC50 of inhibiting SARS-CoV-2 entry into VeroE6 host cells; cited from earlier work
[9] = tested on: VeroE6 host cells; settings: cited from earlier work

Molecule | EC50 [1] [µM] | CC50 at 3 days [2] [µM] | IC50 [3] [µM] | inhibition of Furin [4] | inhibition of TMPRSS2 [5] | inhibition of Cathepsin L [6] | anti-SARS-CoV-2 activity under the postentry treatment [7] | EC50 [8] [µM] | CC50 [9] [µM]
O=C(c1ccccc1)[C@H]1[C@@H]2c3ccccc3C=CN2[C@@H](C(=O)c2ccccc2)[C@@H]2c3ccccc3C=CN12 [Compound 50] | 26.5 ± 6.9 | > 100 | 32.7 ± 8.9 | no inhibition | no inhibition | no inhibition | not under the postentry treatment | – | –
berbamine hydrochloride | – | – | – | – | – | – | – | 1.73 | 66.9
O=C(c1ccc(Cl)cc1)[C@H]1[C@@H]2c3ccccc3C=CN2[C@@H](C(=O)c2ccc(Cl)cc2)[C@@H]2c3ccccc3C=CN12 [Compound 96] | 17 ± 3.7 | > 100 | 10.4 ± 2.1 | no inhibition | no inhibition | no inhibition | not under the postentry treatment | – | –
